What all share (experiment): relative viability (nuclei count vs DMSO), 5 days (fraction); higher = more cells survive
Compound in the test “R406 + Phenformin”: COc1cc(Nc2ncc(F)c(Nc3ccc4c(n3)NC(=O)C(C)(C)O4)n2)cc(OC)c1OC [R406] + N=C(N)NC(=N)NCCc1ccccc1 [Phenformin] (partner 250 µM)
In short, it runs like this: (§1)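 The day after seeding in 1536-well plates, lung cancer cell lines were treated by pin tool with a single drug, or with a fixed anchor-drug dose together with five library-drug doses (not always all listed) in √10 steps. After 5 days, a combined fix-and-stain solution (final 0.05% Triton X-100, 1% formaldehyde, 1 ug/ml Hoechst) was added. Nuclei counted on 4× images gave relative viability as treated counts over vehicle counts, reported as the median of duplicate plates.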

Compound in the test “R406 + Luminespib”: COc1cc(Nc2ncc(F)c(Nc3ccc4c(n3)NC(=O)C(C)(C)O4)n2)cc(OC)c1OC [R406] + CCNC(=O)c1noc(-c2cc(C(C)C)c(O)cc2O)c1-c1ccc(CN2CCOCC2)cc1 [Luminespib] (partner 0.01 µM)
An outline of the steps: as §1

Compound in the test “R406 + Palbociclib”: COc1cc(Nc2ncc(F)c(Nc3ccc4c(n3)NC(=O)C(C)(C)O4)n2)cc(OC)c1OC [R406] + CC(=O)c1c(C)c2cnc(Nc3ccc(N4CCNCC4)cn3)nc2n(C2CCCC2)c1=O [Palbociclib] (partner 0.5 µM)
An outline of the steps: as §1

Compound in the test “R406 + Alpelisib”: COc1cc(Nc2ncc(F)c(Nc3ccc4c(n3)NC(=O)C(C)(C)O4)n2)cc(OC)c1OC [R406] + Cc1nc(NC(=O)N2CCC[C@H]2C(N)=O)sc1-c1ccnc(C(C)(C)C(F)(F)F)c1 [Alpelisib] (partner 2 µM)
In short, it runs like this:
as §1

In the case of UMC-11, the relative viability with R406 + Phenformin (first compound 0.08 µM) was determined as 0.356; in the test with R406 + Phenformin (first compound 0.253 µM) it was 0.35; with R406 + Phenformin (first compound 0.8 µM) it was 0.368; with R406 + Phenformin (first compound 2.53 µM), 0.28; with R406 + Phenformin (first compound 8 µM), 0.19; in the test with R406 + Luminespib (first compound 0.08 µM) it was 1.09. In addition, the relative viability with R406 + Luminespib (first compound 0.253 µM) amounted to 1.07; with R406 + Luminespib (first compound 0.8 µM), 1.12; in the test with R406 + Luminespib (first compound 2.53 µM) it was 0.835; with R406 + Luminespib (first compound 8 µM), 0.418; in the test with R406 + Palbociclib (first compound 0.08 µM), 0.314; with R406 + Palbociclib (first compound 0.253 µM) it was 0.339. Also, the relative viability was 0.35 with R406 + Palbociclib (first compound 0.8 µM); 0.312 in the test with R406 + Palbociclib (first compound 2.53 µM); 0.239 in the test with R406 + Palbociclib (first compound 8 µM); 0.969 in the test with R406 + Alpelisib (first compound 0.08 µM); 1.06 with R406 + Alpelisib (first compound 0.253 µM); 1.15 with R406 + Alpelisib (first compound 0.8 µM). The relative viability was found to be 0.89 with R406 + Alpelisib (first compound 2.53 µM) and 0.386 with R406 + Alpelisib (first compound 8 µM).

(Values after the supplement of paper PMC10307832.)
